Patent US6696468B2, “(S)-4-AMINO-5-CHLORO-2-METHOXY-N-[1-[1-(2-TETRAHYDROFURYL-CARBONYL)-4-[…]]-4-[…]]BENZAMIDE, PROCESS FOR THE PREPARATION THEREOF, PHARMACEUTICAL COMPOSITION CONTAINING THE SAME, AND INTERMEDIATE THEREFOR” (priority 2002, dated 2004)
Structures can show the parent of a compound that is named as a salt.

Experiments:
mice of Std-ddY strain = test: Assay on defecation in mice; assay type: in vivo; design: key: −: Inactive; +: Moderately stimulated (P < 0.05); ++: Markedly stimulated (p < 0.01); conditions: fecal pellet weight vs control, Dunnett's test
Experimental: Male mice of Std-ddY strain weighing 25-30 g were used. Free access to food and water was allowed up to the beginning of the procedure. The mice (each group: five mice) were placed in a mesh bottom cage for fasting, and they were allowed for acclimation to the new environment for about one hour prior to the start of the experiment. A test compound, which was previously suspended in a 0.5% tragacanth solution, was administered orally to the mice. The fecal pellets were collected at 30, 60 and 120 minutes after the treatment of a test compound, and weighed. The statistical judgment of efficacy was carried out between the control group (treated with a 0.5% tragacanth solution) and the test compound-treated group, and determined by Dunnett's test.

colon of Beagle dogs = test: Gastrointestinal motility activity in conscious dog; assay type: in vivo; conditions: within 2 hours after administration
Text: Beagle dogs of a male were anesthetized with pentobarbital, and the abdominal cavity was opened, and force transducers (F-121S; manufactured by Star Medical Inc.) were sutured onto the seromuscular layer of the colon to make it possible to measure circular muscle contractions. Three or four force transducer were sutured onto in the colon from the lower part to the upper part at regular intervals. The lead wires from the transducers were brought out outside the body through a skin incision made between the scapulae, and were protected in a package of a jacket protector. The gastrointestinal motility activity was measured 2 or 3 weeks after the operation. The lead wires from the force transducers were connected with a telemeter system (DAS-800T: manufactured by Star Medical Inc.), and the gastrointestinal motility activity was analyzed by a personal computer system being connected therewith and recorded. A test compound was suspended in a 0.5% tragacanth solution, and administered via a cannula to be placed in the stomach to the dogs, which were one hour or more after feeding. The measurement was continued for 2 hours after the administration of test compounds.
The number of dogs showing Giant Migrating Contraction (GMC) and defecation within 2 hours after the administration of a test compound is indicated in Table 4.

[1] = test system: guinea pigs of Std-Hartley strain; test: Effect on electrocardiogram in guinea pigs (QTc); assay type: in vivo, guinea pig; conditions: anesthetized guinea pigs, iv infusion for 15 minutes, maximum dose 30 mg/kg
Experimental: Male guinea pigs of Std-Hartley strain weighing 350-500 g were anesthetized with urethan (1.5 g/kg, ip). […] RR (second): time from the peak of R-wave to the peak of the next R-wave in electrocardiogram (usually, expressed by “second”). […] Consequently, as an index for evaluating the effects on the heart, a dose to be required to prolong the QTc intervals by 5% of the electrocardiogram (ED5%) in guinea pigs was measured, which has widely been used.

[2] = target: T1, Serotonin 4 (5-HT4) receptor (Cavia porcellus, UniProt O70528); test: Serotonin 4 (5-HT4) receptor binding assay ([3H]-GR113808); conditions: guinea pig striatum membrane fractions, 0.1 nM [3H]-GR113808
T1 construct: from tissue; host or cells: guinea pig (Std-Hartley) brain striatum membrane fraction
T1 sequence (O70528 whole entry): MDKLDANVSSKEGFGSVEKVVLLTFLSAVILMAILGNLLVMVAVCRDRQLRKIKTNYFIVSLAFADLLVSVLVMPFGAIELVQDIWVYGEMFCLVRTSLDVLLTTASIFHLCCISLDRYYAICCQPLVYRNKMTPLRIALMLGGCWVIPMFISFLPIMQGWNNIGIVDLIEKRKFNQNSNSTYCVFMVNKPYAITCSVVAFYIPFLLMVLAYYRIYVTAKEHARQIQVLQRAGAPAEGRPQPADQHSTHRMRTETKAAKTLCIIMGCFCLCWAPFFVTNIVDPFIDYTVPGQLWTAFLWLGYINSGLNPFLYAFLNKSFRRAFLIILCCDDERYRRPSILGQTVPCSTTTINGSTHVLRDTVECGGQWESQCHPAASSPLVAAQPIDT
Text: Std-Hartley guinea pigs weighing 300-400 g were decapitated, and the brain thereof was immediately taken out, and the striatum was dissected.
Prior to the filtration, the filter to be used was presoaked in a 0.1% solution of polyethylenimine for one hour.

Dopamine D2 receptor = target: T2, Dopamine D2 receptor (Rattus norvegicus, UniProt P61169); test: Dopamine D2 receptor binding assay ([3H]spiperone); conditions: rat brain crude synaptosome membrane fractions
T2 construct: Crude synaptosome membrane fractions from rat brain was used as a receptor membrane fraction; from tissue; host or cells: rat brain crude synaptosome membrane fraction
T2 sequence (P61169 whole entry): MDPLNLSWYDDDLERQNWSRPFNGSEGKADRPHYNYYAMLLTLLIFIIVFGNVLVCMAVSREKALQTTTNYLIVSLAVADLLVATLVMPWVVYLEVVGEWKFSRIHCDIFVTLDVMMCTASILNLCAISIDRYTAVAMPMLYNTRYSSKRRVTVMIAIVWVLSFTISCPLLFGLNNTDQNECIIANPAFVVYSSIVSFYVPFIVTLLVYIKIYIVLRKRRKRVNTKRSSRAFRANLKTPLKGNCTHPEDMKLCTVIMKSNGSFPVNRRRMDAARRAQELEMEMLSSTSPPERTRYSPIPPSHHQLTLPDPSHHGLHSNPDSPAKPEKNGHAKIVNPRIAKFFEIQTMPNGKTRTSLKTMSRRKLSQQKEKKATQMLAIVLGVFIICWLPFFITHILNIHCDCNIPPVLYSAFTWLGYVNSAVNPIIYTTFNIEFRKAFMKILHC
Experimental: Dopamine D2 receptor binding assay and the preparation of receptor membrane fractions therefor were carried out according to a modified method of the method of Creese, I. et al., Eur. J. Pharmacol., 46, 337 (1977) and Peroutka, S. J. and Hamik, A., Eur. J. Pharmacol., 148, 297 (1988).
Crude synaptosome membrane fractions from rat brain was used as a receptor membrane fraction, and [^3H]spiperone (D2) was used as a labeled ligand. A buffer (final volume: 1 ml) containing a receptor membrane fraction and a labelled ligand therefor was incubated for a prescribed period in the presence of a test compound in various concentrations, and the radioactive ligand binding to the receptor was separated on the filter paper using a cell harvester (manufactured by Brandel). The radioactivity on the filter was determined by a liquid scintillation counter, and the total binding of the ligand to the receptor was determined. On the other hand, the non-specific binding was determined in the presence of an excess amount of non-labeled ligand (spiperone (D2)), and the specific binding was obtained by subtracting the non-specific binding from the total binding.

Acute toxicity = conditions: male, Std-ddY, mouse, in vivo; mice, intravenous, observed for 7 days
Text: Male mice of Std-ddY strain weighing 25-30 g were used in a group of 5 or more animals. A test compound was suspended in physiological saline solution or a 1% lactose solution and administered intravenously to the mice.

| SMILES | Effect (defecation in mice) (mice of Std-ddY strain; 3.0 mg/kg oral) | ED5%, iv (dose required to prolong the QTc intervals by 5%) [1] [mg/kg] | Effect (defecation in mice) (mice of Std-ddY strain; 1.0 mg/kg oral) | further results |
| --- | --- | --- | --- | --- |
| COc1cc(N)c(Cl)cc1C(=O)NC1CCN(CC2CCN(C(=O)C3CCOCC3)CC2)CC1 (as salt: fumarate) (hydrate or solvate) [Compound A, 4-amino-5-chloro-2-methoxy-N-[1-[1-(4-tetrahydropyranylcarbonyl)-4-piperidinylmethyl]-4-piperidinyl]benzamide.fumarate.1/4 hydrate] |  |  |  | melting point: 235 to 237 °C |
| COc1cc(N)c(Cl)cc1C(=O)NC1CCN(CC2CCN(C(=O)c3ccco3)CC2)CC1 (as salt: fumarate) (hydrate or solvate) [Compound B, 4-amino-5-chloro-N-[1-[1-(2-furoyl)-4-piperidinyl-methyl]-4-piperidinyl]-2-methoxybenzamide.fumarate.1/2 hydrate] |  |  |  | melting point: 179 to 181 °C |
| COc1cc(N)c(Cl)cc1C(=O)N[C@H]1CCN(CCCOc2ccc(F)cc2)C[C@H]1OC (relative stereo) [Cisapride, cis-4-amino-5-chloro-N-[1-[3-(4-fluorophenoxy)propyl]-3-methoxy-4-piperidinyl]-2-methoxybenzamide] | − | 0.3 |  | Effect (defecation in mice) (mice of Std-ddY strain; 30 mg/kg oral): −; Number of dogs which showed defecation/total number of dogs to be tested (colon of Beagle dogs; 10 mg/kg intragastric): 1/7; Number to dogs which showed GMC/total number of dogs to be tested (colon of Beagle dogs; 10 mg/kg intragastric): 1/7 |
| COc1cc(N)c(Cl)cc1C(=O)NC1CCN(CC2CCN(C(=O)[C@@H]3CCCO3)CC2)CC1 [Compound 2, (S)-4-amino-5-chloro-2-methoxy-N-[1-[1-(2-tetrahydrofurylcarbonyl)-4-piperidinylmethyl]-4-piperidinyl]benzamide.fumarate] | ++ | 24.9 | ++ | IC50 [2]: 13.5 nM; IC50 (Dopamine D2 receptor): > 10000 nM; Number of dogs which showed defecation/total number of dogs to be tested (colon of Beagle dogs; 0.03 mg/kg intragastric): 1/4; Number to dogs which showed GMC/total number of dogs to be tested (colon of Beagle dogs; 0.03 mg/kg intragastric): 1/4; Number of dogs which showed defecation/total number of dogs to be tested (colon of Beagle dogs; 0.1 mg/kg intragastric): 2/5; Number to dogs which showed GMC/total number of dogs to be tested (colon of Beagle dogs; 0.1 mg/kg intragastric): 3/5; Number of dogs which showed defecation/total number of dogs to be tested (colon of Beagle dogs; 0.3 mg/kg intragastric): 3/5; Number to dogs which showed GMC/total number of dogs to be tested (colon of Beagle dogs; 0.3 mg/kg intragastric): 4/5; LD50 at 7 days (Acute toxicity): > 200 mg/kg |
| COc1cc(N)c(Cl)cc1C(=O)NC1CCN(CC2CCN(C(=O)C3CCOCC3)CC2)CC1 [Compound A, 4-amino-5-chloro-2-methoxy-N-[1-[1-(4-tetrahydropyranylcarbonyl)-4-piperidinylmethyl]-4-piperidinyl]benzamide.fumarate.1/4 hydrate] | − | 16.9 | − | Effect (defecation in mice) (mice of Std-ddY strain; 10 mg/kg oral): ++ |
| COc1cc(N)c(Cl)cc1C(=O)NC1CCN(CC2CCN(C(=O)c3ccco3)CC2)CC1 [Compound B, 4-amino-5-chloro-N-[1-[1-(2-furoyl)-4-piperidinyl-methyl]-4-piperidinyl]-2-methoxybenzamide.fumarate.1/2 hydrate] | + | 3.2 | + | Effect (defecation in mice) (mice of Std-ddY strain; 10 mg/kg oral): ++ |
| COc1cc(N)c(Cl)cc1C(=O)NC1CCN(CC2CCN(C(=O)C3CCOC3)CC2)CC1.O=C(O)/C=C/C(=O)O (stereo not shown) [Compound C, 4-amino-5-chloro-2-methoxy-N-[1-[1-(3-tetrahydrofurylcarbonyl)-4-piperidinyl-methyl]-4-piperidinyl]benzamide.fumarate] | ++ | 9.4 | + |  |
| COc1cc(N)c(Cl)cc1C(=O)NC1CCN(CC2CCN(C(=O)[C@H]3CCCO3)CC2)CC1 [Compound R, (R)-4-amino-5-chloro-2-methoxy-N-[1-[1-(2-tetrahydrofurylcarbonyl)-4-piperidinyl-methyl]-4-piperidinyl]benzamide.fumarate] | ++ | 17.4 | ++ | IC50 (Dopamine D2 receptor): 948 nM |
